Measured values: a melting point compilation (Tetko et al.; mined from patent text by program, amines drawn as free bases though some values may be those of a salt)

Compound | melting point
CN1CCN(C(=O)OC2c3cc(Cl)ccc3C(=O)N2c2ccc3ccc(Cl)nc3n2)CC1 (configuration not stated) | 280 °C
O=C(OC1c2nccnc2C(=O)N1c1ccc2ccc(Cl)cc2n1)N1CCNCC1 (configuration not stated) | 242 °C
COc1cccc(CNC(=O)c2nc3ccc(O)cc3c(=O)[nH]2)c1 | 268 to 271 °C
COc1ccc(C(O)c2cccnc2)cn1 (configuration not stated) | 129 to 130 °C
Cc1ccc(S(=O)(=O)OCCN(CCOS(=O)(=O)c2ccc(C)cc2)Sc2ccccc2[N+](=O)[O-])cc1 | 91 to 93 °C
Nc1nc(-c2ccccc2)c(C(O)CO)c2ncnn12 (configuration not stated) | 199 to 200 °C
CCCCCOc1ccc(-c2ccc(CC(=O)c3ccccc3)cc2)cc1 | 86 °C
CC(C)N(CCn1c(CO)nc2c(N)nc3ccccc3c21)C(N)=O | > 240 °C
O=P(O)(O)C(O)c1ccccc1 (configuration not stated) | 160 to 162 °C
Cc1ccc(C2=NNC(=O)CC2)cc1OCC1CO1 (configuration not stated) | 128 to 132 °C
CNCC(O)CN1CCN(CC(O)Cn2c3ccc(Br)cc3c3cc(Br)ccc32)CC1 (configuration not stated) | 65 to 75 °C
O=C(O)Cc1c(C(=O)O)c2cc(Oc3ccc(Cl)c(Cl)c3)ccc2n1-c1ccc(OCC(F)(F)F)cc1 | 205 to 210 °C
N#Cc1cc2c(nc1Cl)CCCCC2 | 126 to 127 °C
O=C1CC(c2ccccc2)C(=S)N1c1ccc(Cl)cc1 (configuration not stated) | 153 to 155 °C
CN1CC(C(=O)CO)CC2c3cccc4[nH]cc(c34)CC21 (configuration not stated) | 202 to 203 °C
COc1ccc(CCNc2nc(Cl)c3nc(-c4ccco4)oc3n2)cc1 | 170 to 171 °C
CN1Cc2c(Br)ncn2-c2cccc(Cl)c2C1=O | 178 to 179 °C
CC1(C)COC(C)(C)N1C(=O)OCCN(Cc1ccccc1)Cc1ccccc1 | 32 °C
CN1Cc2c(-c3nc(C4CC4)no3)ncn2-c2cccc(Cl)c2C1=O | 183 to 184 °C
C=CCc1cc(CCC(=O)OCC)ccc1C#CC1(O)CN2CCC1CC2 (configuration not stated) | 55 to 56 °C
COC(=O)CCCc1cc2nc(Cl)ccc2n1S(=O)(=O)c1ccc2c(c1)CCN2C(C)=O | 123 °C

Compound | melting point
CCCCCCCCCCCOc1ccc(-c2ccc(OCC(C)OC(=O)CC(C)C)cc2)cc1 (configuration not stated) | 65.4 to 66.5 °C
CC(C)n1nc(-c2cc(C(N)=O)cnc2-c2ccccc2)ccc1=O | 229 to 230 °C
Cc1ccc(-c2ccc(C(=O)O)cc2)c(N)c1 | 273 to 278 °C
CC(C)Oc1ccc(CCCO)c(Oc2ncc(C(F)(F)F)cc2Cl)c1 | 72 to 73 °C
CCOC(=O)C(=CNc1ccc(COC(C)=O)cc1I)C(=O)OCC | 128 to 131 °C
NCc1ccc(CNc2ncc3ncnc(Nc4ccc(F)c(Cl)c4)c3n2)cc1 | 211 to 213 °C
CC#CCCn1ncc2c(NC(=O)CC)c3c(nc21)CN(CCC)C3=O | 130 to 132 °C
N#Cc1ccc(C(=O)c2ccc(OC3OC(CO)C(O)C(O)C3O)cc2)cc1 (configuration not stated) | 122 °C
COC(=O)c1cc(NC(=O)C(F)(F)F)c2cc(Cc3ccc(F)cc3)cnc2c1O | 191 to 192 °C
CCCCN(CC1Cc2cc(Cl)cc(Cl)c2O1)C(=O)n1cncn1 (configuration not stated) | 122 to 124 °C
NC(=O)c1cccc(OCCCCCCBr)c1 | 115 to 117 °C
O=C1[C@H]2CCC[C@H]2Nc2ccccc2N1Cc1cccc([N+](=O)[O-])c1 (relative stereo) | 169 to 171 °C
COC(=O)C(=CN(C)C)N(C)c1nc(-c2ccc(Br)cc2)cs1 | 184 to 185 °C
Nc1cnc2cc(Cl)ccc2c1Nc1ccc(F)cc1 | 198 to 200 °C
CC(C)c1cccc(C(C)C)c1NC(=O)C(Cc1ccccc1)NC(=O)NCc1ccccc1 (configuration not stated) | 240 to 241 °C
COC(=N)N1CCC(c2n[nH]c3cc(F)ccc23)CC1 | 162 to 164 °C
CCOC(=O)C(C)=NNc1ccc(Cl)cc1Cl | 118 to 120 °C
COc1ccc(-c2cc(=S)n(Cc3cccnc3)nc2-c2ccc(OC)cc2)cc1 | 163 to 164 °C
CC(C)(C)OC(=O)N1CC[C@@H](CN(Cc2ccccc2)Cc2ccccc2)[C@H](O)C1 (relative stereo) | 133 °C
CN(C)CCC(O)c1ccccc1 (configuration not stated) | 45 to 46 °C

Results, then the molecule that gave them:

melting point | Compound
150 to 151 °C | CCCCc1nc(Cl)c(CC=CO)n1Cc1ccc(NC(=O)c2ccccc2C(=O)O)cc1
161 °C | COc1cc(NC(=O)OC(C)(C)C)c(N)cc1-c1ccccc1F
161 to 162 °C | Cc1c(NC(=O)c2ccc(OC[C@@H]3CCCO3)cc2)ccc2cc(CNCC3CCOCC3)[nH]c12
86 to 90 °C | CC1=Cc2cc(F)c(F)cc2C1
164 to 167 °C | COc1ccc(NC(=O)c2ccc(OC)c(N)c2)cc1
176 °C | CC(C)(C)OC(=O)NCc1nc2c(C(F)(F)F)cccc2c(=O)o1
193 to 194 °C | Nc1ncnc2c1c(-c1cccc(O)c1)cn2C1CC(CN2CCCC2)C1 (configuration not stated)
176 to 178 °C | O=C(Nc1cnc(OCCO)c(NC(=O)OCCCl)c1)OCCCl
219 °C | COc1cc(C(=O)c2nc(C#N)c3ccccn23)ccc1[N+](=O)[O-]
200 to 201 °C | CCn1cc(C(=O)O)c(=O)cc1-c1cc(OC)c(OC)c(OC)c1
302 to 305 °C | NNC(=O)c1cnn(-c2ccc(NN)nn2)c1N
221 to 223 °C | COC(=O)Cn1c(C(=O)O)cc2cc(C)cc(C)c21
76 to 85 °C | C=C(C)c1ccccc1S(N)(=O)=O
> 280 °C | Cc1nc(N)c2nc(-c3ccccc3)cc-2[nH]1
177 to 179 °C | CCOC(=O)Cc1csc(NC(=S)Nc2cc(Cl)ccc2C)n1
178 to 180 °C | O=C(O)c1ccccc1-c1nnc(-c2ccccc2)s1
154 to 156 °C | Fc1ccc(C(CCCN2CCC(c3n[nH]c4ccccc34)CC2)c2ccc(F)cc2)cc1
166 to 167 °C | COC(=O)CCCc1ccc(NC(=O)[C@@H](Cc2ccc(OCc3ccccc3)cn2)NC(=O)OC(C)(C)C)cc1
100 to 101 °C | O=C(O)c1nc(SC2CCCCC2)ccc1SC1CCCCC1
191 to 194 °C | N#Cc1[nH]c(Br)c(-c2ccc(Cl)cc2)c1Br
166 to 167 °C | CCCC(=O)c1cnc2c(C)cccc2c1Nc1ccc(Cl)cc1C

melting point | Compound
103 to 105 °C | COc1cc(NC(C)CCCN2C(=O)c3ccccc3C2=O)c2ncccc2c1N(C)C (configuration not stated)
68 to 69.5 °C | CCCCCCCCCCCCCCCCOc1coc(CO)cc1=O
188 to 189 °C | CN1CCc2cc(Cl)c(O)cc2[C@H](c2ccccc2)C1
194 to 196 °C | c1cc(-c2ccn3cnnc3c2)ccn1
205 to 210 °C | CC(C)(C)[Si](OCC1CSC2=C(O1)c1ccccc1C(=O)C2=O)(c1ccccc1)c1ccccc1 (configuration not stated)
174 to 175 °C | O=C(O)COc1cc(-c2c3ccccc3c(Br)c3sc4ccccc4c23)ccc1Br
87 to 91 °C | CN(C)CCOc1ccc(N(CCN(C)C)c2nccc(-c3ccncc3)n2)cc1
222 to 223 °C | Cc1cc(=O)n(C)c2ccc(C3=NNC(=O)CC3CO)cc12 (configuration not stated)
132 to 134 °C | CCCCc1nn(-c2ccccc2C(F)(F)F)c(=O)n1Cc1ccc(-c2ccccc2S(=O)(=O)NS(=O)(=O)C(F)(F)F)cc1
110 to 114 °C | CC(C)C(NC(=O)N(C)Cc1nc2ccccc2[nH]1)C(=O)NN(C(=O)OCc1cccnc1)C(Cc1ccccc1)CC(O)CCc1ccccc1 (configuration not stated)
169 to 170 °C | OC1c2ccccc2CSc2ccc(Br)cc21 (configuration not stated)
113 to 122 °C | COc1cc(OCCN2CCOCC2)ccc1/C=C/c1cc(/C=C/c2ccc3cc[nH]c3c2)n[nH]1
92 to 93 °C | COC(=O)c1cnoc1-c1ccc(F)cc1
246 to 249 °C | O=S1(=O)CC(=Cc2ccc(Cl)cc2)C2=NN(c3ccccc3)C(c3ccc(Cl)cc3)C2C1 (configuration not stated)
60 °C | O=Cc1nn(-c2ccccc2)c2c1CCCC2
28.5 to 31 °C | C#Cc1ccc(-c2ccccc2F)cc1
169 to 173 °C | CC(=O)N(C(=O)C(C)(C)C)C1CC(C)(C)N(OC(=O)C(C)(C)C)C(C)(C)C1
112 °C | FC(F)(F)c1cc(Cl)nc2[nH]ncc12
60.2 to 64.1 °C | COc1ccc(CN2CCC(=C3c4ccc(Cl)cc4CCc4cccnc43)CC2)cn1
119 to 122 °C | O=C1O[C@@H](CO)CN1c1ccc(C2=CCSCC2)c(F)c1
121 to 124 °C | Cn1c(Oc2cccc(N=C=S)c2)nc2ccccc21

melting point | Compound
140 to 141 °C | CCc1cc(C(=O)c2ccccc2Cl)c(-n2c(C)nnc2CO)s1
105 to 107 °C | FC(F)(F)c1nc(Cl)c(-c2ccccc2)c(-c2ccccc2)n1
127 to 128 °C | CCNC(=N)NC(=O)Cc1ccccc1OC
250 to 251 °C | CC(C)(CCc1nnn[nH]1)c1ccc(C(=O)Nc2cn3cc(Cl)ccc3n2)cc1
79.8 °C | CCCn1c(-c2ccccc2)nc2cc(C(=O)OC)ccc21
148 to 152 °C | COC(=O)c1ccc(-c2nnc(CSCCOc3ccc(Cl)cc3Cl)o2)cc1
149 to 152 °C | CCOC(=O)c1cnc2ccc(Cl)nn2c1=O
111 to 121 °C | CC(CN1C(=O)c2ccccc2C1=O)OS(C)(=O)=O (configuration not stated)
137 to 139 °C | Cc1cc(C(=S)NCc2cccc([N+](=O)[O-])c2)c(OCC(=O)O)cc1F
240 to 242 °C | Cc1cc(C)cc(Nn2c(-c3ccccc3)c(C)[nH]c2=S)c1
182 to 183 °C | CNC(=S)C1(c2ccncc2)CCCCC1=O (configuration not stated)
192 to 193 °C | CCOC(=O)c1cn(CCOC(C)=O)c2c(F)c(F)c(F)c(C)c2c1=O
188 to 189 °C | Clc1ccc(Cl)c(-c2csc(NC3=NCCCN3)n2)c1
211 to 213 °C | NC(=O)NC1CCCc2ccsc21 (configuration not stated)
116 °C | CCc1c(C)c2c(c(O)c1C/C=C(\C)CCC(=O)OC)C(=O)OC2
99 to 100 °C | CC(=O)N1CCc2ccc(C(=O)CCCC3CCN(Cc4ccccc4Cl)CC3)cc2CC1
157 to 161 °C | C=CC12COc3cc(Cl)ccc3C1=NN(C(=O)Nc1ccc(C(F)(F)F)cc1)C2 (configuration not stated)
245 to 250 °C | CC(=O)OC1CCN(c2ccc3[nH]c(=O)ccc3c2)CC1
73 to 74 °C | CCOC(=O)c1ccc(O)c(CC)c1
